Patent US20260258084A1, “New Peptides as Selective IL-23 Receptor Antagonists” (Sanofi, priority 2022, published 2026)
Starred links: 1 amine or outer side, 2 acyl side, 3 side chain; linkers in the order of their positions; H or OH if unused. Positions of bridges follow the written chain, without caps; N, C: chain ends. Non-standard residues stand in square brackets, D forms with d. Residues, ends and D or L forms follow the SMILES beside them. *: point of attachment. X5 = CN(C(=O)CCC(=O)[*:3])[C@@H](CS[*:2])C(=O)[*:1]; X6 = O=C(CCC(=O)[*:3])N[C@@H](CS[*:2])C(=O)[*:1]; Trp(7-Me) = Cc1cccc2c(C[C@H](N)C(=O)O)c[nH]c12; X1 = O=C(CCCCN[*:3])N[C@@H](CS[*:2])C(=O)[*:1]; Trp(1-Me) = Cn1cc(C[C@H](N)C(=O)O)c2ccccc21; 2Nal = N[C@@H](Cc1ccc2ccccc2c1)C(=O)O; 3Pal = N[C@@H](Cc1cccnc1)C(=O)O; Lys(Me) = CNCCCC[C@H](N)C(=O)O; αMeL = CC(C)C[C@](C)(N)C(=O)O; Suc = O=C(CCC(=O)[*:2])[*:1]; Thp = NC1(C(=O)O)CCOCC1; Me2NCH2CH2 = CN(C)CC*; Aib = CC(C)(N)C(=O)O; Sar = CNCC(=O)O

Legend:
Pancreatin = experiment: Protease stability in simulated intestinal fluid (Pancreatin-SIF, FaSSIF); assay type: in vitro ADME; conditions: 1 μM peptide, 37° C.; for remaining at 1 h, 1 µM: 60 min, read-out: FaSSIF 60 (min), remaining percent of peptide; for remaining at 2 h, 1 µM: 120 min, read-out: FaSSIF 120 (min), remaining percent of peptide; for remaining at 4 h, 1 µM: 240 min, read-out: FaSSIF 240 (min), remaining percent of peptide
How it was run: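 LC-MS/MS peak areas at 0, 60, 120 and 240 min, normalised to time 0 as 100%, give percent remaining. Reactions used 1 μM final peptide at 37° C in pancreatin-SIF (1 mg pancreatin in 10 mL SIF concentrate) and were stopped with ethanol containing 0.1% HCOOH.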

[1] = system: IL-23 induced STAT3 signaling in HEK-Blue™ IL-23 cells; experiment: IL-23 induced STAT3 signaling in HEK-Blue IL-23 cells (SEAP reporter); assay type: cell-based; conditions: human IL23 0.25 ng/ml, read-out: pSTAT3
How it was run: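 Secreted SEAP, read at OD 620-655 nm after 45 min QUANTI-Blue development, reports STAT3 activation. Beforehand, cells were exposed to peptide dilutions for 60 min at 37 °C and then to 0.25 ng/ml final human IL-23 overnight, at 10,000 cells/well.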

Pepsin = system: T1, Pepsin; experiment: Protease stability in simulated gastric fluid (Pepsin-SGF, FaSSGF); assay type: in vitro ADME; conditions: simulated gastric fluid with pepsin (Pepsin-SGF), 60 min, 1 μM peptide, 37° C., read-out: FaSSGF 60 (min), remaining percent of peptide
T1 construct: purchased Merck Millipore
How it was run: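 LCMS/MS peak areas, normalised to the time-0 sample as 100%, give percent remaining. Conditions: 37° C incubation of 1 μM final peptide in simulated gastric fluid with pepsin; ethanol/0.1% HCOOH quench at 0, 60, 120, 240 min.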

[2] = biological target: T2, human interleukin-23 receptor (recombinant human IL-23R-Fc chimera) (Homo sapiens, UniProt Q5VWK5); experiment: Human ELISA IL23/IL23R (assay for specific human IL23R antagonists); assay type: binding; conditions: Table 10; read-out: Human ELISA IL23/IL23R IC50
T2 construct: Fc (IgG Fc fusion)
How it was run: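 Competition format: peptide dilutions compete for IL23R-Fc chimera (0.1 μg/ml final, 60 min, room temperature) binding to immobilized human IL23 coated at […] overnight at 4 °C. Read-out is fluorogenic HRP signal from goat anti-hu-IgG1 detecting captured receptor.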

Compound	remaining at 1 h, 1 µM (Pancreatin)	remaining at 2 h, 1 µM (Pancreatin)	remaining at 4 h, 1 µM (Pancreatin)	IC50 [1]	remaining at 1 h, 1 µM (Pepsin)	IC50 [2]
CC(=O)N[C@H]1CCCCNC(=O)[C@@H]2CSSC[C@H](NC(=O)[C@H](CC(C)C)NC(=O)[C@H](Cc3c[nH]c4c(C)cccc34)NC1=O)C(=O)N[C@@H](Cc1ccc(OCCN(C)C)cc1)C(=O)N[C@@H](Cc1ccc3ccccc3c1)C(=O)N[C@@](C)(CC(C)C)C(=O)N[C@H](C(=O)N[C@@H](CC(N)=O)C(=O)N[C@@H](Cc1cccnc1)C(=O)N(C)CC(N)=O)CCCCN(C)C(=O)CCC(=O)N2C [compound 69] (Ac-K[Trp(7-Me)]LCY(Me2NCH2CH2)[2Nal][αMeL][Lys(Me)]N[3Pal][Sar]-NH2; linker 1-4-8 via X5)	97%	89%	83%	3.07 nM	79%	2.17 nM
CC(=O)N[C@H]1CCCCNC(=O)[C@@H]2CSSC[C@H](NC(=O)[C@H](CC(C)C)NC(=O)[C@H](Cc3c[nH]c4c(C)cccc34)NC1=O)C(=O)N[C@@H](Cc1ccc(OCCN(C)C)cc1)C(=O)N[C@@H](Cc1ccc3ccccc3c1)C(=O)N[C@@](C)(CC(C)C)C(=O)N[C@H](C(=O)N[C@@H](C)C(=O)N[C@@H](Cc1cccnc1)C(=O)N(C)CC(N)=O)CCCCN(C)C(=O)CCC(=O)N2C [compound 70] (Ac-K[Trp(7-Me)]LCY(Me2NCH2CH2)[2Nal][αMeL][Lys(Me)]A[3Pal][Sar]-NH2; linker 1-4-8 via X5)	94%	90%	87%	3.94 nM	78%	2.07 nM
CC(=O)NCCCC[C@@H]1NC(=O)[C@H](Cc2c[nH]c3c(C)cccc23)NC(=O)[C@@H](NC(C)=O)CCCCNC(=O)[C@@H]2CSSC[C@H](NC1=O)C(=O)N[C@@H](Cc1ccc(OCCN(C)C)cc1)C(=O)N[C@@H](Cc1ccc3ccccc3c1)C(=O)NC(C)(C)C(=O)N[C@H](C(=O)N[C@@H](CC(N)=O)C(=O)N[C@@H](Cc1cccnc1)C(=O)N(C)CC(N)=O)CCC(=O)NCCCCC(=O)N2 [compound 72] (Ac-K[Trp(7-Me)]K(Ac)CY(Me2NCH2CH2)[2Nal][Aib]EN[3Pal][Sar]-NH2; linker 1-4-8 via X1)	91%	90%	83%	0.12 nM	92%	0.59 nM
CC(=O)NCCCC[C@@H]1NC(=O)[C@H](Cc2c[nH]c3c(C)cccc23)NC(=O)[C@@H](NC(C)=O)CCCCNC(=O)[C@@H]2CSSC[C@H](NC1=O)C(=O)N[C@@H](Cc1ccc(OCCN(C)C)cc1)C(=O)N[C@@H](Cc1ccc3ccccc3c1)C(=O)N[C@@](C)(CC(C)C)C(=O)N[C@H](C(=O)N[C@@H](CC(N)=O)C(=O)N[C@@H](Cc1cccnc1)C(=O)N(C)CC(N)=O)CCC(=O)NCCCCC(=O)N2 [compound 73] (Ac-K[Trp(7-Me)]K(Ac)CY(Me2NCH2CH2)[2Nal][αMeL]EN[3Pal][Sar]-NH2; linker 1-4-8 via X1)	82%	81%	77%	0.1 nM	87%	0.58 nM
CC(=O)NCCCC[C@@H]1NC(=O)[C@H](Cc2c[nH]c3c(C)cccc23)NC(=O)[C@H]([C@@H](C)O)NC(=O)[C@H](CC(N)=O)NC(=O)[C@@H]2CSSC[C@H](NC1=O)C(=O)N[C@@H](Cc1ccc(OCCN(C)C)cc1)C(=O)N[C@@H](Cc1ccc3ccccc3c1)C(=O)NC1(CCOCC1)C(=O)N[C@H](C(=O)N[C@@H](CC(N)=O)C(=O)N[C@@H](Cc1cccnc1)C(=O)N(C)CC(N)=O)CCCCNC(=O)CCC(=O)N2 [compound 102] (CNT[Trp(7-Me)]K(Ac)CY(Me2NCH2CH2)[2Nal][Thp]KN[3Pal][Sar]-NH2; disulfide 1-6; linker N-10 via Suc)	82%	77%	74%	0.09 nM	97%	0.3 nM
CC(=O)NCCCC[C@@H]1NC(=O)[C@H](Cc2c[nH]c3c(C)cccc23)NC(=O)[C@H]([C@@H](C)O)NC(=O)[C@H](CC(N)=O)NC(=O)[C@@H]2CSSC[C@H](NC1=O)C(=O)N[C@@H](Cc1ccc(OCCN(C)C)cc1)C(=O)N[C@@H](Cc1ccc3ccccc3c1)C(=O)N[C@@](C)(CC(C)C)C(=O)N[C@H](C(=O)N[C@@H](CC(N)=O)C(=O)N[C@@H](Cc1cccnc1)C(=O)N(C)CC(N)=O)CCCCNC(=O)CCC(=O)N2 [compound 103] (CNT[Trp(7-Me)]K(Ac)CY(Me2NCH2CH2)[2Nal][αMeL]KN[3Pal][Sar]-NH2; disulfide 1-6; linker N-10 via Suc)	75%	73%	67%	0.11 nM	89%	0.56 nM
CC(=O)NCCCC[C@@H]1NC(=O)[C@H](Cc2c[nH]c3c(C)cccc23)NC(=O)[C@@H](NC(C)=O)CCCCNC(=O)[C@@H]2CSSC[C@H](NC1=O)C(=O)N[C@@H](Cc1ccc(OCCN(C)C)cc1)C(=O)N[C@@H](Cc1ccc3ccccc3c1)C(=O)NC(C)(C)C(=O)N[C@H](C(=O)N[C@@H](CC(N)=O)C(=O)N[C@@H](Cc1cccnc1)C(=O)N(C)CC(N)=O)CCCCNC(=O)CCC(=O)N2 [compound 104] (Ac-K[Trp(7-Me)]K(Ac)CY(Me2NCH2CH2)[2Nal][Aib]KN[3Pal][Sar]-NH2; linker 1-4-8 via X6)	80%	80%	76%	0.1 nM	100%	0.64 nM
CC(=O)NCCCC[C@@H]1NC(=O)[C@H](Cc2c[nH]c3c(C)cccc23)NC(=O)[C@@H](NC(C)=O)CCCCNC(=O)[C@@H]2CSSC[C@H](NC1=O)C(=O)N[C@@H](Cc1ccc(OCCN(C)C)cc1)C(=O)N[C@@H](Cc1ccc3ccccc3c1)C(=O)NC1(CCOCC1)C(=O)N[C@H](C(=O)N[C@@H](CC(N)=O)C(=O)N[C@@H](Cc1cccnc1)C(=O)N(C)CC(N)=O)CCCCNC(=O)CCC(=O)N2 [compound 105] (Ac-K[Trp(7-Me)]K(Ac)CY(Me2NCH2CH2)[2Nal][Thp]KN[3Pal][Sar]-NH2; linker 1-4-8 via X6)	78%	80%	77%	0.1 nM	93%	0.55 nM
CC(=O)NCCCC[C@@H]1NC(=O)[C@H](Cc2c[nH]c3c(C)cccc23)NC(=O)[C@@H](NC(C)=O)CCCCNC(=O)[C@@H]2CSSC[C@H](NC1=O)C(=O)N[C@@H](Cc1ccc(OCCN(C)C)cc1)C(=O)N[C@@H](Cc1ccc3ccccc3c1)C(=O)N[C@@](C)(CC(C)C)C(=O)N[C@H](C(=O)N[C@@H](CC(N)=O)C(=O)N[C@@H](Cc1cccnc1)C(=O)N(C)CC(N)=O)CCCCNC(=O)CCC(=O)N2 [compound 106] (Ac-K[Trp(7-Me)]K(Ac)CY(Me2NCH2CH2)[2Nal][αMeL]KN[3Pal][Sar]-NH2; linker 1-4-8 via X6)	76%	76%	74%	0.13 nM	90%	0.65 nM
CC(=O)NCCCC[C@@H]1NC(=O)[C@H](Cc2cn(C)c3ccccc23)NC(=O)[C@@H](NC(C)=O)CCCCNC(=O)[C@@H]2CSSC[C@H](NC1=O)C(=O)N[C@@H](Cc1ccc(OCCN(C)C)cc1)C(=O)N[C@@H](Cc1ccc3ccccc3c1)C(=O)NC1(CCOCC1)C(=O)N[C@H](C(=O)N[C@@H](CC(N)=O)C(=O)N[C@@H](Cc1cccnc1)C(=O)N(C)CC(N)=O)CCC(=O)NCCCCC(=O)N2 [compound 126] (Ac-K[Trp(1-Me)]K(Ac)CY(Me2NCH2CH2)[2Nal][Thp]EN[3Pal][Sar]-NH2; linker 1-4-8 via X1)	90%	87%	83%	0.11 nM	80%	0.56 nM
